Like-named read-outs stand apart in the source and are kept apart here.
Experiments:
[1] = system: luciferase expression in the liver; experiment: In vivo luciferase mRNA expression rodent model (liver luciferase after tail vein injection of FLuc mRNA lipid nanoparticles); design: species or system mice; conditions: liver 4 hours after administration, FLuc mRNA (L-6107) LNP 50% cationic lipid/10% DSPC/38.5% cholesterol/1.5% PEG-DMG; for Liver Luc @ 0.3 mg/kg dose: 0.3 mg mRNA/kg; for Liver Luc @ 1.0 mg/kg dose: 1.0 mg mRNA/kg
Description: Lipid nanoparticles were prepared and tested according to the general procedures described in PCT Pub. Nos. WO 2015/199952 and WO 2017/004143, the full disclosures of which are incorporated herein by reference. Briefly, cationic lipid, DSPC, cholesterol and PEG-lipid were solubilized in ethanol at a molar ratio of about 50:10:38.5:1.5 or about 47.5:10:40.8:1.7. Lipid nanoparticles (LNP) were prepared at a total lipid to mRNA weight ratio of approximately 10:1 to 30:1. The mRNA is diluted to 0.2 mg/mL in 10 to 50 mM citrate or acetate buffer, pH 4. Syringe pumps were used to mix the ethanolic lipid solution with the mRNA aqueous solution at a ratio of about 1:5 to 1:3 (vol/vol) with total flow rates above 15 mL/min. The ethanol was then removed and the external buffer replaced with PBS by dialysis. Finally, the lipid nanoparticles were filtered through a 0.2 µm pore sterile filter. Lipid nanoparticle particle size was approximately 55-95 nm diameter, and in some instances approximately 70-90 nm diameter as determined by quasi-elastic light scattering using a Malvern Zetasizer Nano ZS (Malvern, UK).
Studies were performed in 6-8 week old female C57BL/6 mice (Charles River) or 8-10 week old CD-1 (Harlan) mice (Charles River) according to guidelines established by an institutional animal care committee (ACC) and the Canadian Council on Animal Care (CCAC). Varying doses of mRNA-lipid nanoparticle were systemically administered by tail vein injection and animals euthanized at a specific time point (e.g., 4 hours) post-administration. Liver and spleen were collected in pre-weighed tubes, weights determined, immediately snap frozen in liquid nitrogen and stored at -80° C. until processing for analysis.
For liver, approximately 50 mg was dissected for analyses in a 2 mL FastPrep tubes (MP Biomedicals, Solon OH). ¼” ceramic sphere (MP Biomedicals) is added to each tube and 500 µL of Glo Lysis Buffer - GLB (Promega, Madison Wl) equilibrated to room temperature is added to liver tissue. Liver tissues were homogenized with the FastPrep24 instrument (MP Biomedicals) at 2 × 6.0 m/s for 15 seconds. Homogenate was incubated at room temperature for 5 minutes prior to a 1:4 dilution in GLB and assessed using SteadyGlo Luciferase assay system (Promega). Specifically, 50 µL of diluted tissue homogenate was reacted with 50 µL of SteadyGlo substrate, shaken for 10 seconds followed by 5 minute incubation and then quantitated using a CentroXS^3 LB 960 luminometer (Berthold Technologies, Germany). The amount of protein assayed was determined by using the BCA protein assay kit (Pierce, Rockford IL). Relative luminescence units (RLU) were then normalized to total µg protein assayed. To convert RLU to ng luciferase a standard curve was generated with QuantiLum Recombinant Luciferase (Promega).
The FLuc mRNA (L-6107 or L-7202) from Trilink Biotechnologies will express a luciferase protein, originally isolated from the firefly, photinus pyralis. FLuc is commonly used in mammalian cell culture to measure both gene expression and cell viability. It emits bioluminescence in the presence of the substrate, luciferin. This capped and poly-adenylated mRNA was fully substituted with respect to uridine and/or cytidine nucleosides.
The cationic lipids shown in Table 2 have previously been tested with nucleic acids. For comparative purposes, these lipids were also used to formulate lipid nanoparticles containing the FLuc mRNA (L-6107) using an in line mixing method, as described in Example 1 and in PCT/US10/22614, which is hereby incorporated by reference in its entirety. Lipid nanoparticles were formulated using the following molar ratio: 50% Cationic lipid / 10% distearoylphosphatidylcholine (DSPC) / 38.5% Cholesterol / 1.5% PEG lipid (“PEG-DMG”, i.e., 1-(monomethoxy-polyethyleneglycol)-2,3-dimyristoylglycerol, with an average PEG molecular weight of 2000). […]

[2] = system: luciferase expression in the liver; experiment: as above; design: species or system mice; conditions: 0.5 mg mRNA/kg, liver 4 hours after administration, LNP 50% cationic lipid/10% DSPC/38.5% cholesterol/1.5% PEG-DMA or 47.5/10/40.7/1.8
[3] = Determination of pKa of formulated lipids (TNS fluorescence assay in lipid nanoparticles); assay type: physicochemical
Description: As described elsewhere, the pKa of formulated cationic lipids is correlated with the effectiveness of LNPs for delivery of nucleic acids (see Jayaraman et al, Angewandte Chemie, International Edition (2012), 51(34), 8529-8533; Semple et al, Nature Biotechnology 28, 172-176 (2010)). […] Lipid nanoparticles comprising cationic lipid/DSPC/cholesterol/PEG-lipid (50/10/38.5/1.5 mol%) in PBS at a concentration of 0.4 mM total lipid were prepared using the in-line process as described in Example 1. TNS was prepared as a 100 µM stock solution in distilled water. Vesicles were diluted to 24 µM lipid in 2 mL of buffered solutions containing, 10 mM HEPES, 10 mM MES, 10 mM ammonium acetate, 130 mM NaCl, where the pH ranged from 2.5 to 11. An aliquot of the TNS solution was added to give a final concentration of 1 µM and following vortex mixing fluorescence intensity was measured at room temperature in a SLM Aminco Series 2 Luminescence Spectrophotometer using excitation and emission wavelengths of 321 nm and 445 nm. A sigmoidal best fit analysis was applied to the fluorescence data and the pKa was measured as the pH giving rise to half-maximal fluorescence intensity.

[4] = Table 3, cationic lipid formulated in LNP, TNS fluorescence assay, read-out: pKa

SMILES	Liver Luc @ 0.3 mg/kg dose [1]	Liver Luc @ 0.5 mg/kg (ng luc/g liver) [2]	Liver Luc @ 1.0 mg/kg dose [1]	further results
CCCCC/C=C\C/C=C\CCCCCCCCC(CCCCCCCC/C=C\C/C=C\CCCCC)OC(=O)CCN(C)C [MC2]	4 ± 1 ng luciferase/g liver			
CCCCCCCCCCN(C(=O)CCCN(C)C)C(CCCCCCCCC(=O)OCC(CCCC)CCCCCC)CCCCCCCCC(=O)OCC(CCCC)CCCCCC (centres unmarked) [Compound I-18, BIS(2-BUTYLOCTYL) 10-(N-DECYL-4-(DIMETHYLAMINO)BUTANAMIDO)NONADECANEDIOATE]		13301 ± 8071 ng luc/g liver		
CCCCC(CC)C(=O)OCCCCCCCCCC(CCCCCCCCCOC(=O)C(CC)CCCC)OC(=O)CCCN(C)C (centres unmarked) [Compound 137]	281 ± 203 ng luciferase/g liver		588 ± 303 ng luciferase/g liver	
CCCCCCCCCCN(C(=O)CCN1CCCC1)C(CCCCCCCCC(=O)OCC(CCCC)CCCCCC)CCCCCCCCC(=O)OCC(CCCC)CCCCCC (centres unmarked) [Compound I-33, BIS(2-BUTYLOCTYL) 10-(N-DECYL-3-(PYRROLIDIN-1-YL)PROPANAMIDO)NONADECANEDIOATE]		1304 ± 278 ng luc/g liver		
CCCCCCCCCCN(C(=O)CCCCN(CC)CC)C(CCCCCCCCC(=O)OCC(CCCC)CCCCCC)CCCCCCCCC(=O)OCC(CCCC)CCCCCC (centres unmarked) [Compound I-8, BIS(2-BUTYLOCTYL) 10-(N-DECYL-5-(DIETHYLAMINO)PENTANAMIDO)NONADECANEDIOATE]		7384 ± 1916 ng luc/g liver		
CCCCCCCCCCN(C(=O)CCCN(C)C)C(CCCCCCCCC(=O)OC(CCCCCC)CCCCCC)CCCCCCCCC(=O)OC(CCCCCC)CCCCCC [Compound I-37, DI(TRIDECAN-7-YL) 10-(N-DECYL-4-(DIMETHYLAMINO)BUTANAMIDO)NONADECANEDIOATE]		15234 ± 5248 ng luc/g liver		pKa [3, 4]: 6.3
CCCCC/C=C\C/C=C\CCCCCCCCC(CCCCCCCC/C=C\C/C=C\CCCCC)OC(=O)CCCCN(C)C [MC4]	41 ± 10 ng luciferase/g liver			
CCCCCCCCCCN(C(=O)CCCN1CCCC1)C(CCCCCC(=O)OCC(CCCCCC)CCCCCCCC)CCCCCC(=O)OCC(CCCCCC)CCCCCCCC (centres unmarked) [Compound I-29, BIS(2-HEXYLDECYL) 7-(N-DECYL-4-(PYRROLIDIN-1-YL)BUTANAMIDO)TRIDECANEDIOATE]		5551 ± 1650 ng luc/g liver		
CCCCCCCCCCN(C(=O)CCCCN(C)C)C(CCCCCCCCC(=O)OCC(CCCC)CCCCCC)CCCCCCCCC(=O)OCC(CCCC)CCCCCC (centres unmarked) [Compound I-7, BIS(2-BUTYLOCTYL) 10-(N-DECYL-5-(DIMETHYLAMINO)PENTANAMIDO)NONADECANEDIOATE]		2420 ± 1079 ng luc/g liver		
CCCCCCCCC(CCCCCC)COC(=O)CCCCCC(CCCCCC(=O)OCC(CCCCCC)CCCCCCCC)N(CCCCCC(=O)OCC(CC)CCCC)C(=O)CCN(C)C (centres unmarked) [Compound I-36, BIS(2-HEXYLDECYL) 7-(3-(DIMETHYLAMINO)-N-(6-((2-ETHYLHEXYL)OXY)-6-OXOHEXYL)PROPANAMIDO)TRIDECANEDIOATE]		10377 ± 1435 ng luc/g liver		pKa [3, 4]: 6.55
CCCCC/C=C\C/C=C\CCCCCCCCC1(CCCCCCCC/C=C\C/C=C\CCCCC)OC[C@@H](CCN(C)C)O1 [XTC2]	80 ± 28 ng luciferase/g liver		237 ± 99 ng luciferase/g liver	
CCCCC/C=C\C/C=C\CCCCCCCCN(CCCCCCCC/C=C\C/C=C\CCCCC)CCN(C)C [A]	77 ± 40 ng luciferase/g liver		203 ± 122 ng luciferase/g liver	
CCCCCCCCCCN(C(=O)CCCN(C)C)C(CCCCCC(=O)OCC(CCCCCC)CCCCCCCC)CCCCCC(=O)OCC(CCCCCC)CCCCCCCC (centres unmarked) [Compound I-16, BIS(2-HEXYLDECYL) 7-(N-DECYL-4-(DIMETHYLAMINO)BUTANAMIDO)TRIDECANEDIOATE]		4678 ± 1243 ng luc/g liver		
CCCCC/C=C\C/C=C\CCCCCCCCOCC(CN(C)C)OCCCCCCCC/C=C\C/C=C\CCCCC (centres unmarked) [DLinDMA]	13 ± 3 ng luciferase/g liver		67 ± 20 ng luciferase/g liver	
CCCCCCCCCCN(C(=O)CCCCN1CCCC1)C(CCCCCCCCC(=O)OCC(CCCC)CCCCCC)CCCCCCCCC(=O)OCC(CCCC)CCCCCC (centres unmarked) [Compound I-9, BIS(2-BUTYLOCTYL) 10-(N-DECYL-5-(PYRROLIDIN-1-YL)PENTANAMIDO)NONADECANEDIOATE]		2223 ± 777 ng luc/g liver		
CCCCC/C=C\C/C=C\CCCCCCCCC(CCCCCCCC/C=C\C/C=C\CCCCC)OC(=O)CCCN(C)C [MC3]			757 ± 528 ng luciferase/g liver	
CCCCCC/C=C\COC(=O)CCCCCCCC(CCCCCCCC(=O)OC/C=C\CCCCCC)OC(=O)CCCN(C)C [319 (2% PEG)]	258 ± 67 ng luciferase/g liver		681 ± 203 ng luciferase/g liver	
CCCCCCC(CCCC)COC(=O)CCCCCCCCC(CCCCCCCCC(=O)OCC(CCCC)CCCCCC)N(CC(CC)CCCC)C(=O)CCCN(C)C (centres unmarked) [Compound I-30, BIS(2-BUTYLOCTYL) 10-(4-(DIMETHYLAMINO)-N-(2-ETHYLHEXYL)BUTANAMIDO)NONADECANEDIOATE]		13614 ± 3348 ng luc/g liver		pKa ([3]; Table 1, cationic lipid formulated in LNP (cationic lipid/DSPC/cholesterol/PEG-lipid 50/10/38.5/1.5 mol%), TNS fluorescence, pH giving half-maximal fluorescence): 6.47; pKa ([3]; Table 3, cationic lipid formulated in LNP, TNS fluorescence assay): 6.47
CCCCCCCCCCN(C(=O)CCN(C)C)C(CCCCCC(=O)OCC(CCCCCC)CCCCCCCC)CCCCCC(=O)OCC(CCCCCC)CCCCCCCC (centres unmarked) [Compound I-35, BIS(2-HEXYLDECYL) 7-(N-DECYL-3-(DIMETHYLAMINO)PROPANAMIDO)TRIDECANEDIOATE]		14312 ± 4174 ng luc/g liver		pKa [3, 4]: 6.39
